Source: PubChem BioAssay AID1259407 (Chemical Carcinogenesis Research Information System (CCRIS), 2018)
“Also recorded” adds a separate entry of the source. The source made the active and inactive calls. No rule for the calls is given here.

System: CCRIS mutagenicity, Ames/micronucleus/aberration tests
Assay: CCRIS mutagenicity studies

CC(=O)Nc1ccc2c(c1)Cc1ccccc1-2
mutagenic call (End Point: IN VITRO MICRONUCLEUS, Test System: AHH-1 CELLS, Metabolic Activation: NONE): active; positive | mutagenic call (End Point: IN VITRO MICRONUCLEUS, Test System: MCL-5 CELLS, Metabolic Activation: NONE): active; positive | mutagenic call (End Point: IN VITRO MICRONUCLEUS, Test System: V79 CELLS, Metabolic Activation: RAT, LIVER, S-9, AROCLOR 1254): active; positive | mutagenic call (End Point: In vivo micronucleus, Test System: Micronucleated hepatocytes, Species: Rat, Strain/Sex: F344/Male, Route: Oral): active; positive (p<0.01 at highest dose); also recorded: active; positive (p<0.05 at lower dose and p<0.01 at higher dose) | mutagenic call (Test System: AMES SALMONELLA TYPHIMURIUM, Strain/Indicator: DJ400, Metabolic Activation: HUMAN, HEPATOMA CELLS, BENZO[A]ANTHRACENE, Method: PREINCUBATION): active; positive | mutagenic call (Test System: AMES SALMONELLA TYPHIMURIUM, Strain/Indicator: DJ400, Metabolic Activation: HUMAN, HEPATOMA CELLS, Method: PREINCUBATION): active; positive | mutagenic call (Test System: AMES SALMONELLA TYPHIMURIUM, Strain/Indicator: DJ400, Metabolic Activation: RAT, LIVER, S-9, AROCLOR 1254, Method: PREINCUBATION): active; positive | mutagenic call (Test System: AMES SALMONELLA TYPHIMURIUM, Strain/Indicator: DJ400, Metabolic Activation: RAT, LIVER, S-9, Method: PREINCUBATION): active; positive | mutagenic call (Test System: AMES SALMONELLA TYPHIMURIUM, Strain/Indicator: DJ460, Metabolic Activation: HUMAN, HEPATOMA CELLS, BENZO[A]ANTHRACENE, Method: PREINCUBATION): active; positive | mutagenic call (Test System: AMES SALMONELLA TYPHIMURIUM, Strain/Indicator: DJ460, Metabolic Activation: HUMAN, HEPATOMA CELLS, Method: PREINCUBATION): active; positive | mutagenic call (Test System: AMES SALMONELLA TYPHIMURIUM, Strain/Indicator: DJ460, Metabolic Activation: RAT, LIVER, S-9, AROCLOR 1254, Method: PREINCUBATION): active; positive | mutagenic call (Test System: AMES SALMONELLA TYPHIMURIUM, Strain/Indicator: DJ460, Metabolic Activation: RAT, LIVER, S-9, Method: PREINCUBATION): active; positive | mutagenic call (Test System: AMES SALMONELLA TYPHIMURIUM, Strain/Indicator: TA97, Metabolic Activation: NONE, Method: STANDARD PLATE): inactive; negative | mutagenic call (Test System: AMES SALMONELLA TYPHIMURIUM, Strain/Indicator: TA97, Metabolic Activation: RAT, LIVER, S-9, AROCLOR 1254, Method: STANDARD PLATE): inactive; negative | mutagenic call (Test System: AMES SALMONELLA TYPHIMURIUM, Strain/Indicator: TA98, Metabolic Activation: GUINEA PIG, LIVER, HEPATOCYTES): active; positive | mutagenic call (Test System: AMES SALMONELLA TYPHIMURIUM, Strain/Indicator: TA98, Metabolic Activation: GUINEA PIG, LIVER, S-9, Method: STANDARD PLATE): active; positive | mutagenic call (Test System: AMES SALMONELLA TYPHIMURIUM, Strain/Indicator: TA98, Metabolic Activation: HAMSTER, LIVER, HEPATOCYTES): active; positive | mutagenic call (Test System: AMES SALMONELLA TYPHIMURIUM, Strain/Indicator: TA98, Metabolic Activation: HAMSTER, LIVER, S-9, Method: STANDARD PLATE): active; positive | mutagenic call (Test System: AMES SALMONELLA TYPHIMURIUM, Strain/Indicator: TA98, Metabolic Activation: HUMAN, FETAL LIVER, S-9): inactive; negative | mutagenic call (Test System: AMES SALMONELLA TYPHIMURIUM, Strain/Indicator: TA98, Metabolic Activation: HUMAN, HEPATOMA CELLS, BENZO[A]ANTHRACENE, Method: PREINCUBATION): active; positive | mutagenic call (Test System: AMES SALMONELLA TYPHIMURIUM, Strain/Indicator: TA98, Metabolic Activation: HUMAN, HEPATOMA CELLS, Method: PREINCUBATION): active; positive | mutagenic call (Test System: AMES SALMONELLA TYPHIMURIUM, Strain/Indicator: TA98, Metabolic Activation: HUMAN, RED BLOOD CELL, CYTOSOL, Method: PREINCUBATION): active; positive | mutagenic call (Test System: AMES SALMONELLA TYPHIMURIUM, Strain/Indicator: TA98, Metabolic Activation: MOUSE, LIVER, HEPATOCYTES): inactive; negative | mutagenic call (Test System: AMES SALMONELLA TYPHIMURIUM, Strain/Indicator: TA98, Metabolic Activation: MOUSE, LIVER, S-9, Method: STANDARD PLATE): active; positive | mutagenic call (Test System: AMES SALMONELLA TYPHIMURIUM, Strain/Indicator: TA98, Metabolic Activation: NONE, Method: SPIRAL ASSAY): inactive; negative | mutagenic call (Test System: AMES SALMONELLA TYPHIMURIUM, Strain/Indicator: TA98, Metabolic Activation: NONE, Method: STANDARD PLATE): inactive; negative | mutagenic call (Test System: AMES SALMONELLA TYPHIMURIUM, Strain/Indicator: TA98, Metabolic Activation: RABBIT, LIVER, MICROSOMAL FRACTION, Method: STANDARD PLATE): active; positive | mutagenic call (Test System: AMES SALMONELLA TYPHIMURIUM, Strain/Indicator: TA98, Metabolic Activation: RABBIT, LUNG, MICROSOMAL FRACTION, Method: STANDARD PLATE): active; positive | mutagenic call (Test System: AMES SALMONELLA TYPHIMURIUM, Strain/Indicator: TA98, Metabolic Activation: RAT, BLADDER, S-9, PCB, Method: FLUCTUATION TEST): inactive; negative | mutagenic call (Test System: AMES SALMONELLA TYPHIMURIUM, Strain/Indicator: TA98, Metabolic Activation: RAT, LIVER, HEPATOCYTES): inactive; negative | mutagenic call (Test System: AMES SALMONELLA TYPHIMURIUM, Strain/Indicator: TA98, Metabolic Activation: RAT, LIVER, S-9, ACRYLAMIDE, Method: STANDARD PLATE): active; positive | mutagenic call (Test System: AMES SALMONELLA TYPHIMURIUM, Strain/Indicator: TA98, Metabolic Activation: RAT, LIVER, S-9, AROCLOR 1254, Method: PREINCUBATION): active; positive | mutagenic call (Test System: AMES SALMONELLA TYPHIMURIUM, Strain/Indicator: TA98, Metabolic Activation: RAT, LIVER, S-9, AROCLOR 1254, Method: SPIRAL ASSAY): active; positive | mutagenic call (Test System: AMES SALMONELLA TYPHIMURIUM, Strain/Indicator: TA98, Metabolic Activation: RAT, LIVER, S-9, PHENOBARBITAL, Method: STANDARD PLATE): active; positive | mutagenic call (Test System: AMES SALMONELLA TYPHIMURIUM, Strain/Indicator: TA98, Metabolic Activation: RAT, LIVER, S-9, Method: PREINCUBATION): active; positive | mutagenic call (Test System: AMES SALMONELLA TYPHIMURIUM, Strain/Indicator: TA98, Metabolic Activation: RAT, LIVER, S-9, Method: STANDARD PLATE): active; positive | mutagenic call (Test System: AMES SALMONELLA TYPHIMURIUM, Strain/Indicator: TA100, Metabolic Activation: NONE, Method: SPIRAL ASSAY): inactive; negative | mutagenic call (Test System: AMES SALMONELLA TYPHIMURIUM, Strain/Indicator: TA100, Metabolic Activation: NONE, Method: STANDARD PLATE): inactive; negative | mutagenic call (Test System: AMES SALMONELLA TYPHIMURIUM, Strain/Indicator: TA100, Metabolic Activation: RAT, BLADDER, S-9, PCB, Method: FLUCTUATION TEST): inactive; negative | mutagenic call (Test System: AMES SALMONELLA TYPHIMURIUM, Strain/Indicator: TA100, Metabolic Activation: RAT, LIVER, S-9, ACRYLAMIDE, Method: STANDARD PLATE): active; positive | mutagenic call (Test System: AMES SALMONELLA TYPHIMURIUM, Strain/Indicator: TA100, Metabolic Activation: RAT, LIVER, S-9, AROCLOR 1254, Method: SPIRAL ASSAY): inactive; negative | mutagenic call (Test System: AMES SALMONELLA TYPHIMURIUM, Strain/Indicator: TA100, Metabolic Activation: RAT, LIVER, S-9, KC500 OR PHENOBARBITAL, Method: LIQUID SUSPENSION): active; positive | mutagenic call (Test System: AMES SALMONELLA TYPHIMURIUM, Strain/Indicator: TA100, Metabolic Activation: RAT, LIVER, S-9, PHENOBARBITAL, Method: STANDARD PLATE): active; positive | mutagenic call (Test System: AMES SALMONELLA TYPHIMURIUM, Strain/Indicator: TA1535, Metabolic Activation: NONE, Method: SPIRAL ASSAY): inactive; negative | mutagenic call (Test System: AMES SALMONELLA TYPHIMURIUM, Strain/Indicator: TA1535, Metabolic Activation: NONE, Method: STANDARD PLATE): inactive; negative | mutagenic call (Test System: AMES SALMONELLA TYPHIMURIUM, Strain/Indicator: TA1535, Metabolic Activation: RAT, LIVER, S-9, AROCLOR 1254, Method: SPIRAL ASSAY): inactive; negative | mutagenic call (Test System: AMES SALMONELLA TYPHIMURIUM, Strain/Indicator: TA1535, Metabolic Activation: RAT, LIVER, S-9, AROCLOR 1254, Method: STANDARD PLATE): inactive; negative | mutagenic call (Test System: AMES SALMONELLA TYPHIMURIUM, Strain/Indicator: TA1537, Metabolic Activation: NONE, Method: SPIRAL ASSAY): inactive; negative
